Where a SMILES comes first, the peptide text is derived from it.
What was measured:
mouse plasma enzymes = assay: Stability of AMC-peptides in mouse plasma (HPLC, 350 nm); assay type: in vitro ADME; details: up to 6 hrs
Description: Peptide linker stock solutions (10 mM in DMSO) are diluted to 1 mM and then incubated with mouse plasma; aliquots are removed, blood proteins are precipitated with cold acetonitrile, pelleted with centrifugation, and the supernatant analyzed by HPLC.
(§1) A series of peptide-based small molecules were screened in vitro to characterize their lability in human cathepsin B and mouse plasma enzymes. The screening protocol was adapted from literatures^1,2 and is shown below in FIGS. 31 and 32. In short, a small library of peptides conjugated to 7-amino-4-methylcoumarin (AMC-peptides) were synthesized by standard solid-phase peptide synthesis (SPPS) by Genscript (Piscataway, NJ), as summarized in the Table 18. They were first dissolved in DMSO as 10 mM stock solution and then incubated in the presence of PBS buffer (Gibco, 10010-031), cathepsin B (Sino Biological, protein human recombinant), and mouse plasma (BioIVT, C57BL/6 li-hep pooled, female). Substrates of either cathepsin B or plasma enzymes (and not PBS) afforded cleavage of the peptide-AMC bond. The resultant free AMC elutes at a different time from the parent AMC-conjugated peptides on the HPLC, thereby the linker degradation was monitored and quantified over time (i.e., 5 min, 1 hr and 6 hrs). PBS buffer solution was used as the matrix for the negative control. Cleavage of cathepsin B substrate Ill (Millipore Sigma, 219392) served as the positive control.
(§2) The stability of the analyte peptide was determined by the comparing the area-under-curve (AUC) of analyte peaks at 350 nm following formula: […]

human cathepsin B = target: T1, human cathepsin B (Homo sapiens, UniProt P07858); assay: Cleavage of AMC-peptides by cathepsin B (HPLC, 350 nm); assay type: biochemical; details: pH 5, 37° C., up to 6 hrs
T1 construct: purchased Sino Biological
Description: as §1, §2

CT26 tumors = assay: CT26 tumor model, single intratumoral injection of 35 nmol STINGa; assay type: in vivo, BALB/c mice; details: 35 nmol STINGa IT, versus vehicle or free STINGa
Description: Tumor size was measured by digital calipers (FIG. 11B) and survival (FIG. 11C) were assessed up to 80 days after tumor implantation.
To assess the impact of linkage on efficacy in vivo, select compositions were tested in tumor-bearing mice (FIG. 11). The study design is shown in (FIG. 11A). BALB/c mice were implanted subcutaneously with 10^5 cells of the syngeneic tumor line CT26 on day 0. Tumors were allowed to grow until all mice in the study had palpable tumors. On day 12, mice were treated with a single intratumoral (IT) injection of 35 nmol of the STINGa as either (i) Compound 56 (amide linkage); (ii) Compound 94 hydrazone (Hz) linkage; or (iii) the free STINGa. An additional group of mice was treated with the formulation vehicle (7% DMSO in PBS) as a negative control. Tumors were measured biweekly to track tumor growth after treatment.

[1] = test system: Interferon-gamma-induced protein 10 (IP-10); assay: Serum IP-10 (ELISA) 4 hours after intratumoral injection (tolerability); assay type: in vivo, C57BL/6 mice; details: 4 hours after 7 nmol IT
Description: (§3) Tumor size was measured by digital calipers for up to 30 days after tumor implantation (FIG. 12 B & C). To assess acute toxicity, mice were bled 4 hours after treatment, and blood IP-10 concentration was assessed by ELISA (FIG. 12D).
(§4) To further assess the impact of linkage on efficacy and tolerability in vivo, select compositions of the Compound listed in Table 9 were evaluated in tumor-bearing mice (FIG. 12). The study design is shown in (FIG. 12A). […] Tumors were allowed to grow until all mice in the study had palpable tumors. On day 11, mice were treated with a single intratumoral (IT) injection of 7 nmol of STINGa (diABZI) as either Compound 56, Compound 94, Compound 95, Compound 96 or Compound 97 in PBS. As a control, a group of mice was treated with the formulation vehicle (7% DMSO in PBS). Tumors were measured biweekly to track tumor growth after treatment. Tolerability was assessed by measuring the amount of Interferon-gamma-induced protein 10 (IP-10) in the serum of animals 4 hours after intratumoral injection.

[2] = Particle / hydrodynamic size (Rh, Dh) by dynamic light scattering; assay type: physicochemical
Description: Samples were suspended at 0.5 mg/mL in PBS pH 7.4 and particle size was determined using dynamic light scattering (Malvern ZetaSizer Ultra).

MC38 tumors = assay: MC38 tumor model, single intratumoral injection of 7 nmol STINGa (diABZI); assay type: in vivo, C57BL/6 mice; details: 7 nmol STINGa IT day 11, versus vehicle / untreated
Description: as §3, §4

[3] = Turbidity (OD 490 nm) / solubility in PBS buffer at different pH; assay type: physicochemical

Compound	stability in mouse plasma (mouse plasma enzymes)	stability / cleavage in the presence of cathepsin B (human cathepsin B)	Rh (nm) at pH 7.4 [2]	other results
CCC(NC(=O)[C@@H](NC(=O)[C@@H]1CCCN1C(=O)[C@H](CO)NC(=O)CCNC(C)=O)C(C)C)C(=O)Nc1ccc2c(C)cc(=O)oc2c1 (some centres unmarked) [AI, Ac-A′SPVB-AMC] (HELM PEPTIDE1{[ac].[bAla].S.P.V.[CCC(N[*:1])C(=O)[*:2]].[Cc1cc(=O)oc2cc(N[*:1])ccc12]}$$$$V2.0)	metabolized quickly	metabolized quickly		
CCC(NC(=O)[C@H](CO)NC(=O)[C@H](CCCCN)NC(=O)[C@H](CO)NC(=O)CCNC(C)=O)C(=O)Nc1ccc2c(C)cc(=O)oc2c1 (some centres unmarked) [AL, Ac-A′SKSB-AMC] (HELM PEPTIDE1{[ac].[bAla].S.K.S.[CCC(N[*:1])C(=O)[*:2]].[Cc1cc(=O)oc2cc(N[*:1])ccc12]}$$$$V2.0)	significant stability	readily cleaved		
CCCCC(NC(=O)[C@@H](NC(=O)CCNC(C)=O)C(C)C)C(=O)Nc1ccc2c(C)cc(=O)oc2c1 (some centres unmarked) [AM, Ac-A′VnL-AMC] (HELM PEPTIDE1{[ac].[bAla].V.[CCCCC(N[*:1])C(=O)[*:2]].[Cc1cc(=O)oc2cc(N[*:1])ccc12]}$$$$V2.0)	metabolized quickly	metabolized quickly		
CCCC[C@H](NC(=O)[C@@H](NC(=O)[C@@H]1CCCN1C(=O)[C@H](CO)NC(=O)CCNC(C)=O)C(C)C)C(=O)Nc1ccc2c(C)cc(=O)oc2c1 [AN, Ac-A′SPVnL-AMC] (HELM PEPTIDE1{[ac].[bAla].S.P.V.[Nle].[Cc1cc(=O)oc2cc(N[*:1])ccc12]}$$$$V2.0)	metabolized quickly	metabolized quickly		
CCCC[C@H](NC(=O)[C@H](CO)NC(=O)[C@H](CCCCNC(C)=O)NC(=O)[C@H](CO)NC(=O)CCNC(C)=O)C(=O)Nc1ccc2c(C)cc(=O)oc2c1 [AO, Ac-A′SK(Ac) SnL-AMC] (HELM PEPTIDE1{[ac].[bAla].S.K.S.[Nle].[Cc1cc(=O)oc2cc(N[*:1])ccc12]}|PEPTIDE2{[ac]}$PEPTIDE1,PEPTIDE2,4:R3-1:R2$$$V2.0)	significant stability	readily cleaved		
CCCCC(NC(=O)[C@H](CO)NC(=O)[C@H](CCCCN)NC(=O)[C@H](CO)NC(=O)CCNC(C)=O)C(=O)Nc1ccc2c(C)cc(=O)oc2c1 (some centres unmarked) [AP, Ac-A′SKSnL-AMC] (HELM PEPTIDE1{[ac].[bAla].S.K.S.[CCCCC(N[*:1])C(=O)[*:2]].[Cc1cc(=O)oc2cc(N[*:1])ccc12]}$$$$V2.0)	significant stability	readily cleaved		
CC[C@H](NC(=O)[C@@H](NC(=O)CCNC(C)=O)C(C)C)C(=O)Nc1ccc2c(C)cc(=O)oc2c1 [Compound AH, Ac-A′VB-AMC] (HELM PEPTIDE1{[ac].[bAla].V.[Abu].[Cc1cc(=O)oc2cc(N[*:1])ccc12]}$$$$V2.0)	metabolized quickly	metabolized quickly		
CCC(NC(=O)[C@@H](NC(=O)[C@H](CCCCNC(C)=O)NC(=O)[C@H](CO)NC(=O)CCNC(C)=O)C(C)C)C(=O)Nc1ccc2c(C)cc(=O)oc2c1 (some centres unmarked) [Compound AJ, Ac-A′SK(Ac) VB-AMC] (HELM PEPTIDE1{[ac].[bAla].S.K.V.[CCC(N[*:1])C(=O)[*:2]].[Cc1cc(=O)oc2cc(N[*:1])ccc12]}|PEPTIDE2{[ac]}$PEPTIDE1,PEPTIDE2,4:R3-1:R2$$$V2.0)	relatively stable	relatively stable		
CCC(NC(=O)[C@H](CO)NC(=O)[C@H](CCCCNC(C)=O)NC(=O)[C@H](CO)NC(=O)CCNC(C)=O)C(=O)Nc1ccc2c(C)cc(=O)oc2c1 (some centres unmarked) [Compound AK, Ac-A′SK(Ac) SB-AMC] (HELM PEPTIDE1{[ac].[bAla].S.K.S.[CCC(N[*:1])C(=O)[*:2]].[Cc1cc(=O)oc2cc(N[*:1])ccc12]}|PEPTIDE2{[ac]}$PEPTIDE1,PEPTIDE2,4:R3-1:R2$$$V2.0)	significant stability	readily cleaved		
N3-p[(HPMA)-co-(MA-b-Ala-Hz-HA-diABZI)]-Pg [Compound 94]			10.0 nm	survival (CT26 tumors): improved; tumor control / tumor growth (CT26 tumors): improved tumor control; serum IP-10 level compared to free STINGa [1]: similar; tumor control (MC38 tumors): improved tumor control
N3-p[(HPMA)-co-(MA-b-Ala-PEG4-VZ-PAB-diABZI)]-Pg [Compound 97]			7.6 nm	serum IP-10 level compared to free STINGa [1]: lower; tumor control (MC38 tumors): improved tumor control
N3-p[(HPMA)-co-(MA-b-Ala-VZ-PAB-diABZI)]-Pg [Compound 96]			26.9 nm	serum IP-10 level compared to free STINGa [1]: lower; tumor control (MC38 tumors): improved tumor control
N3-p[(HPMA)-co-(MA-b-Ala-cHz-HA-diABZI)]-Pg [Compound 95]			7.3 nm	serum IP-10 level compared to free STINGa [1]: lower; tumor control (MC38 tumors): improved tumor control
N3-poly(HPMA-co-Ma-b-Ala-2BXy-co-Ma-b-Ala-COOH)-Pg [Compound 48]				Turbidity at pH 6.5 [3]: Aggregate; Turbidity at pH 7.4 [3]: 0.043; Rh (nm) at pH 6.5 [2]: 48.0 nm
N3-poly(HPMA-co-Ma-b-Ala-2BXy-co-Ma-b-Ala-dimethylethylenediamine)-Pg [Compound 52]				Rh (nm) at pH 6.5 [2]: 4.1 nm
N3-poly(HPMA-co-Ma-b-Ala-diABZI)-Pg [Compound 56]			(aggregate)	survival (CT26 tumors): comparable to the mice that received the vehicle; tumor control / tumor growth (CT26 tumors): comparable to the mice that received the vehicle; tumor control (MC38 tumors): not
N3-poly[(HPMA-co-Ma-b-Ala-2BXy)-b-(HPMA-co-Ma-propyl-NH2)]-Pg [Compound 68]			6.5 nm	Rh (nm) at pH 6.5 [2]: 5.6 nm
N3-poly[(HPMA-co-Ma-b-Ala-2BXy)-b-HPMA]-Pg [Compound 62]			6.6 nm	Turbidity at pH 6.5 [3]: 0.039; Turbidity at pH 7.4 [3]: 0.039; Rh (nm) at pH 6.5 [2]: 6.9 nm
PAMAM-g-poly[(HPMA-co-Ma-b-Ala-2BXy)-b-(HPMA-co-Ma-propyl-NH2]-Pg [Compound 80]			12.4 nm	Turbidity at pH 7.4 [3]: 0.043
PAMAM-g-poly[(HPMA-co-Ma-b-Ala-2BXy)-b-HPMA]-Pg [Compound 78]			12.9 nm	Turbidity at pH 7.4 [3]: 0.041
